Reference: patent US12161723B2, “Water-based cannabinoid and opioid compositions” (DAY THREE LABS MAN[…]., priority 2014, dated 2024)

Experiments:
[1] = target: T1, bovine serum albumin (BSA) (Bos taurus, UniProt P02769); experiment: Cannabis smoke bubbled through aqueous BSA solution, cannabinoids determined by HPLC (Example 1a); type: binding; settings: BSA in Hartmann's solution; FIG. 2A
T1 construct: purchased Millipore, USA
Experimental: Protein-bound cannabinoid was formed according to the following method. An aqueous albumin solution was prepared by adding 20 (mg)) of bovine serum albumin (BSA, from Millipore, USA) to 10 milliliters (ml) ml Hartmann's solution (B. Braun Melsungen AG, Germany). BSA was completely dissolved using a shaker (Heidolph POLYMAX 1040) at 50 revolutions per minute.
A cannabis-filled cigarette was formed using a cigarette paper containing 0.8 gr ground cannabis (provided by “Seach” Israel), from flowers and budding leaves. A Pasteur pipette was cut longitudinally at its wide end, and the cigarette was lodged in to the cut end. The narrow end of the pipette was attached to a syringe. The cigarette was lit in a fume hood, and cigarette smoke was collected in the syringe by pulling the syringe plunger. The smoke was then slowly released into the BSA solution by depressing the plunger. Approximately 350 ml of smoke-containing air was gently bubbled through the BSA solution.
As a control, a solution of 10 ml of Hartmann's solution was prepared without the addition of BSA and a similar procedure of cannabis smoke formation and bubbling was performed.
Samples having a volume of 3 ml of the BSA solution and the control solution were each inserted in to HPLC glass vials and the open vials were inserted into a vacuum oven for 24 hours at 37° Celsius.
The solid phase after the evaporation was crushed in to a fine powder using mortar and pestle. The powder was extracted using Methanol chloroform 9:1 extract solution, sonicated for 30 minutes, and was then filtered and added in to an HPLC testing tube.
HPLC was performed using an HP1050 AGILENT, DAD detector, XBridge C18 3.5 μm 4.6×150 mm column, and according to the following parameters: […]

BSA [2] = target: T2, BSA (Bos taurus, UniProt P02769); experiment: Cannabis smoke/vapor passed through BSA/water/ethanol solution, cannabinoid profile (Example 1d); type: binding, bovine; settings: 33% ethanol, 48 hours incubation, washed
T2 sequence (P02769 25-607): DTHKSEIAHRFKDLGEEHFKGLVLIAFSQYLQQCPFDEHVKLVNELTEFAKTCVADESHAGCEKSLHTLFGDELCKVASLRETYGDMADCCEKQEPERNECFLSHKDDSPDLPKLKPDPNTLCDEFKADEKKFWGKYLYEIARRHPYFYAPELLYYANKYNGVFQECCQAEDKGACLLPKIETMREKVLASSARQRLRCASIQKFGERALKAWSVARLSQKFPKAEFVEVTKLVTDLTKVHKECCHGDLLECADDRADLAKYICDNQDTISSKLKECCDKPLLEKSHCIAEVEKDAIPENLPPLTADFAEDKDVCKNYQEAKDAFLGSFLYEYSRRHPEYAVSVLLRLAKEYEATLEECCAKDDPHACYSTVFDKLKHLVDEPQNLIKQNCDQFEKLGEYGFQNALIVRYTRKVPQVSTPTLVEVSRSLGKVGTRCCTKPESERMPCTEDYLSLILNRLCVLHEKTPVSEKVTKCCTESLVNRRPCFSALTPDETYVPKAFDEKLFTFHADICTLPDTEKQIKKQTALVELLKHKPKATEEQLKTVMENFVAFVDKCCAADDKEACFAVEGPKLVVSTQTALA
Experimental: (§1) To show which cannabinoid compounds are solubilized in processes using BSA versus organic solvents, cannabis from two different batches was smoked and or vaporized. Vapor was formed using a “volcano” vaporizer at a temperature of 210° C. The smoke/vapor was passed through either a BSA/water/ethanol solution described in example 1b, comprising 33% by volume ethanol or through a pure ethanol (99% ethanol) solution. Solutions were stirred using a magnetic stirrer and were incubated for 48 hours, during which time, most of the ethanol evaporated. One of the batches of cannabis was high in THC, and the other batch of cannabis was high in both THC and CBD.
The BSA/water/ethanol solution was washed after smoke or vapor was combined with it, and the amount of cannabinoids present was analyzed. The results of the comparison of relative concentration of cannabinoids (relative to total cannabinoid content) as expressed in percent (weight/weight), for a strain of cannabis high in THC are shown in the table below.

[3] = Cannabis smoke/vapor passed through pure ethanol, cannabinoid profile (Example 1d); type: physicochemical; settings: for relative concentration of cannabinoids (relative to total cannabinoid content), Vapor passed through ethanol: vapor at 210° C.
Experimental: as §1

bovine γ-globulin = experiment: Cannabis vapor streamed through protein solution, cannabinoids adsorbed (Example 1f); type: binding; settings: vapor of cannabis high in CBD; 1 mg/ml protein, ethanol:water 1:2, 30° C., 24 hours
Experimental: (§2) The protein solutions were formed using ethanol and water in a 1:2 ratio. The solutions were incubated at 30° C. for 24 hours.

[4] = target: T3, rice recombinant human serum albumin (HSA) (Homo sapiens, UniProt P02768); experiment: as above; type: binding; settings: vapor of cannabis high in CBD; 1 mg/ml protein, ethanol:water 1:2, 30° C., 24 hours
T3 construct: host or cells: rice (recombinant expression host)
T3 sequence (P02768 25-609): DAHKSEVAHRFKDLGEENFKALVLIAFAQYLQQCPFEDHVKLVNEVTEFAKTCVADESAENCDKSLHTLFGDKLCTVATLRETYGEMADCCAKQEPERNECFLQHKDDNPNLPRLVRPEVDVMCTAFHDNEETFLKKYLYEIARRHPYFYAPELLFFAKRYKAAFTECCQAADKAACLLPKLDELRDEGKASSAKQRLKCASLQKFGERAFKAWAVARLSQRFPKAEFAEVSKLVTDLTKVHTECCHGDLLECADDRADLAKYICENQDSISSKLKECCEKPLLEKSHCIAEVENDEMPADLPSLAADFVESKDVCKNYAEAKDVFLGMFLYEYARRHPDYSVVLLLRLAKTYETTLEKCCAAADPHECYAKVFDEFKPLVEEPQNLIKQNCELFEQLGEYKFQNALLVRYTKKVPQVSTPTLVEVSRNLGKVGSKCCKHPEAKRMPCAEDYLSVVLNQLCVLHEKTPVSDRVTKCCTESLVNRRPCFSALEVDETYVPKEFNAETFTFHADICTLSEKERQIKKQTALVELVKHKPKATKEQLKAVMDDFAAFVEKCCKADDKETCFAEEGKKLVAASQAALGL
Experimental: as §2

[5] = Cannabinoid content of cannabis extract (Example 2a); type: physicochemical; settings: methanol/chloroform 9:1 cannabis extract
Experimental: (§3) Cannabis extract was prepared as follows: In short, cannabis plant matter is dried, ground and homogenized to form ground cannabis. The ground cannabis is extracted with methanol/chloroform (volume/volume ratio of 9:1). Sonication and filtration is then performed. Identity of cannabinoids is determined by HPLC by evaporation, dissolution in an appropriate solvent.
(§4) Drying of the cannabis plant matter occurs under high vacuum at about 37±2° C. for about 24 hours and then ground to form a fine powder. 200 mg of ground powder is combined with 10 ml of methanol/chloroform, and sonicated in an ice bath for 30 minutes at maximum power. The supernatant is then filtered through a 0.2 micron filter.
(§5) A sample of the cannabis extract was analyzed for content of cannabinoids. The cannabis extract was then combined with albumin solution having 20% ethanol at 10 mg/ml (BSA) and incubated for 2 hours at room temperature.

BSA [6] = target: T2, BSA; experiment: Cannabis extract combined with albumin solution, cannabinoids adsorbed to BSA (Example 2a); type: binding, bovine; settings: albumin solution 10 mg/ml (BSA) with 20% ethanol, 2 hours at room temperature
Experimental: as §3, §4, §5

albumin (BSA) = albumin (BSA) (Bos taurus, UniProt P02769); experiment: Ethanolic cannabinoid solution mixed with aqueous albumin, protein-bound cannabinoid quantified (Example 2b); type: binding, bovine; set-up: protein-bound cannabinoid quantified, Vapor: unit not given beside the values; settings: 100 microliters ethanolic solution + 500 microliters 5 mg/ml BSA, 30° C., 12 hours, non-adsorbed cannabinoids separated
albumin (BSA), sequence (P02769 25-607): as the sequence (P02769 25-607) above
Experimental: 100 microliters of ethanolic cannabinoid solution from cannabis vapor and cannabis smoke were each mixed with 500 microliters of aqueous albumin solution that had been prepared at a concentration of 5 mg albumin (BSA)/ml. The aqueous albumin solution combined with the ethanolic cannabinoid solution was incubated at 30° C. for 12 hours in open tubes. After 12 hours, the tubes were mixed and centrifuged, and non-adsorbed cannabinoids were separated from the solution. Concentrated protein-bound cannabinoid was dried and quantified as described below.

[7] = 3 g high THC strain; 200 ml ethanol concentrated to about 3 ml
ovalbumin (hen) = target: T4, ovalbumin (hen) (Gallus gallus, UniProt P01012); experiment: Cannabis vapor streamed through protein solution, cannabinoids adsorbed (Example 1f); type: binding; settings: vapor of cannabis high in CBD; 1 mg/ml protein, ethanol:water 1:2, 30° C., 24 hours
T4 sequence (P01012 1-386): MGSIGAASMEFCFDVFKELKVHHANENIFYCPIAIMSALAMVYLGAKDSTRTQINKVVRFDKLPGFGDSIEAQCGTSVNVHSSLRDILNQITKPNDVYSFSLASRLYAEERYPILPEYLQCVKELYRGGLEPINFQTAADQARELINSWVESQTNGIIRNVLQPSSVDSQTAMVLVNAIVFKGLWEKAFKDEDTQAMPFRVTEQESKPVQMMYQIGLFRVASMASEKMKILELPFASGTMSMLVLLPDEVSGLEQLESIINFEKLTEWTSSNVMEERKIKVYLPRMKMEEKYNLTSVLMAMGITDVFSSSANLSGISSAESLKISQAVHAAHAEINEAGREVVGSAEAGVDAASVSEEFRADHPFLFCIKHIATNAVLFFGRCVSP
Experimental: as §2

[8] = strain of cannabis high in CBD and THC

T1 sequence (P02769 25-607): as the sequence (P02769 25-607) above

| SMILES | active cannabinoids found by HPLC in BSA aqueous solution after cannabis smoke was introduced [1] | relative concentration of cannabinoids (relative to total cannabinoid content), Smoke passed through BSA/water/ethanol (BSA [2]; [8]) | relative concentration of cannabinoids (relative to total cannabinoid content), Smoke passed through BSA/water/ethanol (BSA [2]; strain of cannabis high in THC) | relative concentration of cannabinoids (relative to total cannabinoid content), Smoke passed through ethanol [3, 8] | relative concentration of cannabinoids (relative to total cannabinoid content), Vapor passed through ethanol [3, 8] | relative concentration of cannabinoids (relative to total cannabinoid content), Smoke passed through ethanol ([3]; strain of cannabis high in THC) | relative concentration of cannabinoids (relative to total cannabinoid content), Vapor passed through ethanol ([3]; strain of cannabis high in THC) | percentage of each cannabinoid relative to total cannabinoids adsorbed to protein, Bovine γ-globulin (bovine γ-globulin) [percentage] | percentage of each cannabinoid relative to total cannabinoids adsorbed to protein, Rice recombinant HSA [4] [percentage] | percentage of each cannabinoid relative to total cannabinoids, Extract [5] [percentage] | percentage of each cannabinoid relative to total cannabinoids adsorbed to protein, Adsorbed to BSA after extract combined with BSA solution (BSA [6]) [percentage] | protein-bound cannabinoid quantified, Smoke (albumin (BSA)) | protein-bound cannabinoid quantified, Vapor (albumin (BSA)) | amount of cannabinoids dissolved in ethanol, Smoke [7] [micrograms/ml] | amount of cannabinoids dissolved in ethanol, Vapor [7] [micrograms/ml] | relative concentration of cannabinoids (relative to total cannabinoid content), Vapor passed through BSA/water/ethanol (BSA [2]; [8]) | percentage of each cannabinoid relative to total cannabinoids adsorbed to protein, Ovalbumin (ovalbumin (hen)) [percentage] |
| --- | --- | --- | --- | --- | --- | --- | --- | --- | --- | --- | --- | --- | --- | --- | --- | --- | --- |
| CCCCCc1cc(O)c2c(c1)OC(C)(CCC=C(C)C)C=C2 (centres unmarked) [CBC, cannabichromene] | dissolved in the solution | 0.0 percent (weight/weight) | 0.0 percent (weight/weight) | 3.1 percent (weight/weight) | 3.8 percent (weight/weight) | 1.3 percent (weight/weight) | 0.0 percent (weight/weight) | 0 | 0 | 1 | 3 | 2.13 | 1.845 | 90.873 | 54.7468 |  |  |
| CCCCCc1cc(O)c(C/C=C(\C)CCC=C(C)C)c(O)c1 [CBG, cannabigerol] |  | 0.0 percent (weight/weight) | 21.0 percent (weight/weight) | 4.2 percent (weight/weight) | 1.5 percent (weight/weight) | 4.9 percent (weight/weight) | 1.2 percent (weight/weight) | 0 | 0 | 3 | 1 | 5.9 | 11.685 | 292.063 | 183.6224 | 0.0 percent (weight/weight) | 0 |
| CCCCCc1cc(O)c(C/C=C(\C)CCC=C(C)C)c(O)c1C(=O)O [CBGA, cannabigerolic acid] |  | 0.0 percent (weight/weight) | 0.0 percent (weight/weight) | 0.4 percent (weight/weight) | 0.0 percent (weight/weight) | 0.6 percent (weight/weight) | 0.1 percent (weight/weight) | 0 | 0 | 3 | 2 | 0.58 | 1.43 | 23.088 | 28.7668 | 0.0 percent (weight/weight) | 0 |
